Measurements reported in patent EP2873675A1, “Peptide-based peroxidase inhibitors and methods of using same” (The Medical College of Wisconsin, Inc., priority 2013, dated 2015).
“Also recorded” adds a separate entry of the source. Residues, ends and D or L forms follow the SMILES beside them.

Legend:
MPO [1] = experiment: MPO-catalyzed HOCl production (taurine/TMB assay); type: biochemical
Description: MPO-mediated HOCl Production. MPO (20 nM) was incubated with H2O2 (50 µM), NaCl (150 mM), taurine (5 mM) and increasing concentrations of KYC in phosphate buffer (100 mM, pH 7.4) which also contained diethylene triamine pentaacetic acid (DTPA, 100 µM) to prevent non-specific, divalent metal cation oxidation for 30 min. Reactions were halted by addition of catalase. Chlorotaurine was quantified using the 3,3-,5,5-tetramethylbenzidine (TMB) assay. Briefly, 400 µL of reaction solution was mixed with 100 µL of 2 mM TMB, 100 µM NaI containing 10% dimethylformamide (DMF) in 400 mM acetate buffer (pH 5.4). After 5 min, absorbance (650 nm) was recorded on a UV/Vis spectrophotometer (Agilent Model 8453).
MPO-catalyzed HOCl Production: MPO (20 nM) was incubated with H2O2 (50 µM), NaCl (150 mM), taurine (5 mM) and increasing concentrations of KYC in a phosphate buffer (100 mM, pH 7.4) containing diethylene triamine pentaacetic acid (DTPA, 100 µM) to prevent non-specific, divalent metal cation oxidation for 30 min. Reactions were halted by addition of catalase (2,000 units/mL). Chlorotaurine was quantified using the TMB assay (66). Briefly, 400 µL of reaction solution was mixed with 100 µL of 2 mM TMB, 100 µM NaI containing 10% dimethylformamide (DMF) in 400 mM acetate buffer (pH 5.4). After 5 min, absorbance (650 nm) was recorded on a UV/Vis spectrophotometer (Agilent Model 8453).

BAEC = experiment: MPO-mediated BAEC injury (cell morphology); type: cell-based, Bovine; conditions: 20 min
SCD mice [2] = experiment: Vasodilatation of pressurized facialis arteries from treated SCD mice; type: in vivo; conditions: IP 0.3 mg/kg/d for 3 weeks; response to ACh; untreated SCD ∼20%
Description: Murine Model of Sickle Cell Disease. Mice treated with KYC in vivo. SCD mice were treated with KYC (intraperitoneal injection: IP 0.3 mg/kg/d) or with PBS (IP 100 µL) for 3 weeks. Anesthesia was induced with Ketamine (100mg/kg) + Xylazine (10mg/kg) cocktail (ip) and then sacrificed by exsanguination. Facialis arteries were atraumatically dissected and maintained in cooled MOPS solution (in mM: NaCl 145, KCL 4.7, CaCl2 2, NaH2PO4 1.2, MgSO4, 1.2, pyruvate 2, EDTA 0.02, MOPS 3.0, and glucose 5.0, at pH 7.4). Vessels were then submerged in a MOPS bath, mounted on MOPS-containing glass capillary tubes, internally pressurized (60 mmHg), and warmed to 37°C. Internal vascular diameters were measured with a calibrated video-microscope (Boeckeler). After the vessel was allowed to acclimate to 37°C (approximately 30 min), the diameter was measured and recorded (Dmax). […] A control dose-response curve using acetylcholine (ACh, 10^-7 - 10^-4 M) was performed and vessel diameter recorded. […] Vasodilation to papaverine (2.0X10^-4 M) was determined after all treatments to ensure smooth muscle viability. Vasodilation was calculated as a percent of maximal vessel diameter change.
Vasodilatation. […] Physiological responses to increasing concentrations of acetylcholine (ACh) were determined by videomicroscopy as previously described.

SCD mice [3] = experiment: Vessel wall thickness of facialis arteries from SCD mice; type: in vivo; conditions: 0.3 mg/kg/d, 3 weeks; after papaverine; P=0.10
Description: Vessel Wall Thickness. After completing the vasodilatation studies, the pressurized vessels were maximally dilated by addition of papaverine (10^-4 mol/L, 4 min), and outside and inside diameters recorded. An index of wall thickness was calculated using the following formula; ([outside diameter/inside diameter]/2)/outside diameter, as previously described.

SCD mice [4] = experiment: Immunofluorescence of aortas of SCD mice; type: in vivo; conditions: IP 0.3 mg/kg/d, three weeks; vs non-treated SCD mice
Description: Immunofluorescence Studies. In a separate study, SCD mice were treated with KYC (IP, 0.3 mg/kg/d). After three weeks treatment, mice were deeply anesthetized and euthanized by exsanguination. Thoracic and abdominal aortas were surgically removed and rinsed free of blood elements using ice cold PBS. Aortas were fixed, imbedded in paraffin, and sectioned.

C57BL/6J mice = experiment: Acute lung injury: pulmonary retention of Q-dot labeled EMPs; type: in vivo; conditions: pretreatment and treatment of EMP-injected mice
Description: KYC Inhibits Acute Lung Injury. Inflammation and sepsis induce the release of endothelial cell microparticles (EMPs). Increased production of EMPs is hypothesized to play a causal role in the mechanisms mediating acute lung injury (ALI). To test this hypothesis, the inventors incubated human umbilical vein endothelial cells with PAI-1, which is well-recognized for inducing endothelial cells to generate EMPs. The EMPs were collected by ultracentrifugation, resuspended in physiological saline solution and then labeled with Q-dots. The Q-dot labeled EMPs were counted and then injected into C57BL/6J mice to achieve a final concentration of 100,000 EMPs/mL of blood. Mice were pretreated with phosphate buffered saline (Fig. 6) or KYC and then were injected with Q-dot labeled EMPs alone or Q-dot labeled EMPs plus KYC (Fig. 6).

lung cancer mice = experiment: BHT-treated lung cancer mice (BALF activities, tumor number); type: in vivo; conditions: BHT 300 mg/kg single dose; 0.3 mg/kg/d; after 3 days
Description: Inhibiting MPO decreases PMN degranulation in lung cancer mice. PMNs are considered to play a causal role in initiating tumor formation. Effects of KYC on PMN recruitment and tumor formation in lung cancer mice were determined. Briefly, mice were treated with BHT (single dose: 300 mg/kg) and KYC (0.3 mg/kg/d).

[5] = Solubility in water / physiological buffers; type: physicochemical; conditions: can be added directly to physiological buffers
MPO [6] = experiment: MPO-mediated LDL oxidation (conjugated diene formation, absorbance at 234 nm); type: biochemical; conditions: 25 µM; in the absence of nitrite

CC(=O)N[C@@H](CCCCN)C(=O)N[C@@H](Cc1ccc(O)cc1)C(=O)N[C@@H](CS)C(N)=O [KYC, N-acetyl Lysyltyrosylcysteine amide] (Ac-Lys-Tyr-Cys-NH2)
MPO-catalyzed HOCl production, comparison at equimolar concentration (MPO [1]; 12.5 µM): comparable to that of tryptophan; also recorded: significantly more effective at inhibiting MPO-dependent HOCl production than GSH
inhibition of HOCl production (MPO [1]; 12.5 µM): ~75%
MPO-dependent HOCl production (MPO [1]; 25 µM): completely inhibits; also recorded: completely ablated
IC50 (MPO [1]; MPO 20 nM, H2O2 50 µM, NaCl 150 mM, 30 min): ~7 µM
protection of BAEC from MPO-induced injury (morphology) (BAEC; 25 µM, higher MPO (5 µg/ml) or H2O2 (100 µM), data not shown): protected BAEC from even higher concentrations of MPO
protection of BAEC from MPO-induced injury (morphology) (BAEC; 50 µM, MPO 2.5 µg/ml, H2O2 50 µM): almost the same morphology as cultures that were not exposed to MPO
vasodilatation, percent of maximal vessel diameter change (SCD mice [2]): ~60%
vessel wall thickness (SCD mice [3]): reduces vessel wall thickness
MPO levels in the aortas (SCD mice [4]): reduced
chlorotyrosine levels in the aortas (SCD mice [4]): reduced
pulmonary retention of Q-dot labeled EMPs (C57BL/6J mice): dramatically decreases pulmonary retention
MPO activity in BALF (lung cancer mice): significantly decreased
PMN number in BALF (lung cancer mice): did not reduce
elastase activity in BALF (lung cancer mice): significantly decreased
solubility in water [5]: highly water soluble
MPO/H2O2-mediated LDL oxidation (MPO [6]): inhibited LDL oxidation; also recorded: did not increase LDL oxidation
